Measurements from PMC5363373, “Zirconium tetraazamacrocycle complexes display extraordinary stability and provide a new strategy for zirconium-89-based radiopharmaceutical development” (Chemical Science, 2016).

Legend:
[1] = In vitro metal competition study; assay type: physicochemical; conditions: PBS pH 7.4, 37 C
Method: In vitro Metal Competition study. To a solution of metal cations [iron (III) chloride, cobalt (II) chloride, zinc (II) chloride, copper (II) chloride, magnesium (II) chloride, gallium (III) nitrate, gadolinium (III) chloride] (1 mM, 200 µL), was added 89Zr-labeled complex (0.1 mM, 10 µL, 80 μCi, 2.96 MBq) in PBS, pH 7.4. The resulting solutions (n = 3) were incubated at 37 °C for 7 days in a thermomixer. Dissociation of 89Zr from 89Zr-complexes was monitored by radio-TLC at 2 h, 1 d, 4 d and 7 d time point. All studies were performed in triplicate.

Biodistribution studies = assay type: in vivo, female NIH Swiss mice; conditions: mice
Method: Biodistribution Studies. Biodistribution studies were conducted using a modified literature procedure. 7 Briefly, female NIH Swiss mice (6-8 wk old, n=6) were injected with each 89Zr-labeled complex (0.55 MBq (15 μCi)/mouse) via the tail vein, and sacrificed at 2, 4, 24, 48, 72 h post-injection. Organs and tissues of interest were excised, weighted, and counted on a Perkin Elmer 2480 Wizard® gamma counter (Waltham, MA). The percent injected dose per gram (%ID/g) and percent injected dose per organ (%ID/organ) were calculated by comparison to a weighed, counted standard for each group (Tables S9 – S12).
Statistical Methods. All of the data are presented as mean±SD or mean (95% Confidence Interval). For statistical classification a student’s t test (two-tailed, unpaired) was performed using GraphPad Prism (San Diego, CA). Any p<0.05 was considered significant.

[2] = In vitro serum stability (radio-ITLC); assay type: in vitro ADME; conditions: 37 C, after 7 days
Method: In vitro serum stability. In vitro serum stability was carried out by adding 10 µL of each 89Zr-labeled complex (70 μCi, 2.59 MBq) to 500 µL of human serum. The solutions (n=4) were incubated at 37 °C for 7 days and were analyzed daily for 1 week by radio -TLC using Varian ITLC-SA strips and 0.1 M EDTA (pH 5) as the mobile phase and gamma counting using an energy window of 500-1500 keV and standard protocols . Serum samples were also analyzed after 7 days by size exclusion chromatography (SEC) using a Superdex 200 10/300 GLTM column (GE Healthcare Life Sciences, Piscataway, NJ) and phosphate buffered saline (PBS) as eluent with a flow rate of 0.5 mL/min.
Figure S30. Radio-ITLC of 89Zr-DOTA solution in human serum at 37 °C after 0 h (a) and 7 days (b). […]

[3] = In vitro EDTA challenge study; assay type: physicochemical
Method: In vitro EDTA challenge study. In vitro EDTA challenge study was carried out by adding 10 µL of each 89Zr-labeled complex (70 μCi, 2.59 MBq) to 500 µL of EDTA (10 mM, 50 mM and 100 mM: pH 5 and pH 7) with a 1:100, 1:500, and 1:1000 ratio of ligand/EDTA. The solutions (n=4) were incubated at 37 °C for 7 days in a thermomixer. Samples were analyzed at 30 min, 1 h, 3 h, 6 h, 1 d, 3 d, 5 d and 7 d post administration to EDTA by radio-TLC using Varian ITLC-SA strips and 0.1 M EDTA (pH 5) as the mobile phase and gamma counting using an energy window of 500-1500 keV and standard protocols .

[4] = intravenous, 72 h post-injection

Q: Which results are given for `CC(=O)N1CCCCCNC(=O)CCC(=O)N2CCCCCNC(=O)CCC(=O)N(CCCCCN)[O][89Zr+]([O]1)[O]2` [89Zr-DFO, reference compound]?
A: % Intact of 89Zr-complexes ([1]; Co2+, 2 h): 99.2 ± 0.2%; % Intact of 89Zr-complexes ([1]; Co2+, 1 d): 98.3 ± 0.4%; % Intact of 89Zr-complexes ([1]; Co2+, 4 d): 98.1 ± 0.3%; % Intact of 89Zr-complexes ([1]; Co2+, 7 d): 95.4 ± 0.9%; % Intact of 89Zr-complexes ([1]; Cu2+, 2 h): 98.9 ± 0.5%; % Intact of 89Zr-complexes ([1]; Cu2+, 1 d): 98.6 ± 0.4%; % Intact of 89Zr-complexes ([1]; Cu2+, 4 d): 97.3 ± 0.7%; % Intact of 89Zr-complexes ([1]; Cu2+, 7 d): 96.0 ± 1.0%; % Intact of 89Zr-complexes ([1]; Fe3+, 2 h): 96.5 ± 0.2%; % Intact of 89Zr-complexes ([1]; Fe3+, 1 d): 76.1 ± 1.3%; % Intact of 89Zr-complexes ([1]; Fe3+, 4 d): 53.2 ± 3.8%; % Intact of 89Zr-complexes ([1]; Fe3+, 7 d): 33.9 ± 1.5%; % Intact of 89Zr-complexes ([1]; Fe3+, 7 d, listed as 89Zr–DFO): 33.9%; % Intact of 89Zr-complexes ([1]; Ga3+, 2 h): 99.3 ± 0.2%; % Intact of 89Zr-complexes ([1]; Ga3+, 1 d): 93.4 ± 2.6%; % Intact of 89Zr-complexes ([1]; Ga3+, 4 d): 81.1 ± 0.5%; % Intact of 89Zr-complexes ([1]; Ga3+, 7 d): 72.6 ± 1.3%; % Intact of 89Zr-complexes ([1]; Ga3+, 7 d, listed as 89Zr–DFO): 72.6%; % Intact of 89Zr-complexes ([1]; Gd3+, 2 h): 99.4 ± 0.3%; % Intact of 89Zr-complexes ([1]; Gd3+, 1 d): 98.8 ± 0.1%; % Intact of 89Zr-complexes ([1]; Gd3+, 4 d): 98.4 ± 0.3%; % Intact of 89Zr-complexes ([1]; Gd3+, 7 d): 96.8 ± 0.2%; % Intact of 89Zr-complexes ([1]; Mg2+, 2 h): 99.3 ± 0.1%; % Intact of 89Zr-complexes ([1]; Mg2+, 1 d): 98.6 ± 0.5%; % Intact of 89Zr-complexes ([1]; Mg2+, 4 d): 97.6 ± 0.8%; % Intact of 89Zr-complexes ([1]; Mg2+, 7 d): 96.8 ± 1.2%; % Intact of 89Zr-complexes ([1]; Zn2+, 2 h): 99.5 ± 0.1%; % Intact of 89Zr-complexes ([1]; Zn2+, 1 d): 98.8 ± 0.3%; % Intact of 89Zr-complexes ([1]; Zn2+, 4 d): 97.7 ± 0.6%; % Intact of 89Zr-complexes ([1]; Zn2+, 7 d): 95.9 ± 0.7%; Radioactivity in blood (Biodistribution studies; [4]): 0.0003 ± 0.0005 % ID per g; Radioactivity in bone (Biodistribution studies; [4]): 0.079 ± 0.014 % ID per g; Radioactivity in kidney (Biodistribution studies; [4]): 0.69 ± 0.098 % ID per g; Radioactivity in liver (Biodistribution studies; [4]): 0.066 ± 0.009 % ID per g; Radioactivity retention in bone tissue over time (Biodistribution studies; time points up to 72 h): increases over time; Radio-ITLC peak of complex in human serum [2]: 100%; % Intact of 89Zr-complexes ([3]; EDTA 100-fold, pH 5.0, 37 C, 30 min): 93.0 ± 0.7%; % Intact of 89Zr-complexes ([3]; EDTA 100-fold, pH 5.0, 37 C, 1 h): 85.5 ± 0.9%; % Intact of 89Zr-complexes ([3]; EDTA 100-fold, pH 5.0, 37 C, 3 h): 59.6 ± 0.8%; % Intact of 89Zr-complexes ([3]; EDTA 100-fold, pH 5.0, 37 C, 6 h): 29.4 ± 0.7%; % Intact of 89Zr-complexes ([3]; EDTA 100-fold, pH 5.0, 37 C, 1 d): 6.6 ± 0.3%; % Intact of 89Zr-complexes ([3]; EDTA 100-fold, pH 5.0, 37 C, 3 d): 5.4 ± 0.3%; % Intact of 89Zr-complexes ([3]; EDTA 100-fold, pH 5.0, 37 C, 5 d): 4.4 ± 0.2%; % Intact of 89Zr-complexes ([3]; EDTA 100-fold, pH 5.0, 37 C, 7 d): 3.6 ± 0.1%; % Intact of 89Zr-complexes ([3]; EDTA 100-fold, pH 7.0, 37 C, 30 min): 99.0 ± 0.4%; % Intact of 89Zr-complexes ([3]; EDTA 100-fold, pH 7.0, 37 C, 1 h): 96.6 ± 1.1%; % Intact of 89Zr-complexes ([3]; EDTA 100-fold, pH 7.0, 37 C, 3 h): 90.3 ± 0.8%; % Intact of 89Zr-complexes ([3]; EDTA 100-fold, pH 7.0, 37 C, 6 h): 89.4 ± 0.2%; % Intact of 89Zr-complexes ([3]; EDTA 100-fold, pH 7.0, 37 C, 1 d): 88.6 ± 0.2%; % Intact of 89Zr-complexes ([3]; EDTA 100-fold, pH 7.0, 37 C, 3 d): 87.2 ± 0.6%; % Intact of 89Zr-complexes ([3]; EDTA 100-fold, pH 7.0, 37 C, 5 d): 86.6 ± 0.3%; % Intact of 89Zr-complexes ([3]; EDTA 100-fold, pH 7.0, 37 C, 7 d): 83.9 ± 0.5%; % Intact of 89Zr-complexes ([3]; EDTA 500-fold, pH 5.0, 37 C, 30 min): 60.9 ± 1.0%; % Intact of 89Zr-complexes ([3]; EDTA 500-fold, pH 5.0, 37 C, 1 h): 33.9 ± 1.2%; % Intact of 89Zr-complexes ([3]; EDTA 500-fold, pH 5.0, 37 C, 3 h): 3.9 ± 0.4%; % Intact of 89Zr-complexes ([3]; EDTA 500-fold, pH 5.0, 37 C, 6 h): 0%; % Intact of 89Zr-complexes ([3]; EDTA 500-fold, pH 7.0, 37 C, 30 min): 90.3 ± 0.7%; % Intact of 89Zr-complexes ([3]; EDTA 500-fold, pH 7.0, 37 C, 1 h): 81.1 ± 1.1%; % Intact of 89Zr-complexes ([3]; EDTA 500-fold, pH 7.0, 37 C, 3 h): 58.6 ± 0.3%; % Intact of 89Zr-complexes ([3]; EDTA 500-fold, pH 7.0, 37 C, 6 h): 42.7 ± 1.2%; % Intact of 89Zr-complexes ([3]; EDTA 500-fold, pH 7.0, 37 C, 1 d): 36.2 ± 0.7%; % Intact of 89Zr-complexes ([3]; EDTA 500-fold, pH 7.0, 37 C, 3 d): 31.8 ± 1.1%; % Intact of 89Zr-complexes ([3]; EDTA 500-fold, pH 7.0, 37 C, 5 d): 30.4 ± 0.9%; % Intact of 89Zr-complexes ([3]; EDTA 500-fold, pH 7.0, 37 C, 7 d): 28.5 ± 0.4%; % Intact of 89Zr-complexes ([3]; EDTA 1000-fold, pH 5.0, 37 C, 30 min): 37.7 ± 1.1%; % Intact of 89Zr-complexes ([3]; EDTA 1000-fold, pH 5.0, 37 C, 1 h): 14.6 ± 0.7%; % Intact of 89Zr-complexes ([3]; EDTA 1000-fold, pH 5.0, 37 C, 3 h): 0%; % Intact of 89Zr-complexes ([3]; EDTA 1000-fold, pH 7.0, 37 C, 30 min): 85.6 ± 1.1%; % Intact of 89Zr-complexes ([3]; EDTA 1000-fold, pH 7.0, 37 C, 1 h): 68.3 ± 1.2%; % Intact of 89Zr-complexes ([3]; EDTA 1000-fold, pH 7.0, 37 C, 3 h): 45.4 ± 0.7%; % Intact of 89Zr-complexes ([3]; EDTA 1000-fold, pH 7.0, 37 C, 6 h): 32.9 ± 0.5%; % Intact of 89Zr-complexes ([3]; EDTA 1000-fold, pH 7.0, 37 C, 1 d): 28.1 ± 0.7%; % Intact of 89Zr-complexes ([3]; EDTA 1000-fold, pH 7.0, 37 C, 3 d): 24.5 ± 0.8%; % Intact of 89Zr-complexes ([3]; EDTA 1000-fold, pH 7.0, 37 C, 5 d): 21.4 ± 1.2%; % Intact of 89Zr-complexes ([3]; EDTA 1000-fold, pH 7.0, 37 C, 7 d): 20.3 ± 0.5%; Loss of metal ions in EDTA challenge ([3]; after 3 h incubation, 1000-fold excess of EDTA at pH 5): completely lost metal ions
